The values below come from PubChem BioAssay (NCI).

Among the test systems are SNB-78 CNS; LXFL 529 NSCLC; KM20L2 colon; T-47D breast; DU-145 prostate; PC-3 prostate; MDA-N; HOP-18 NSCLC.
Common to all, as to assay: inhibition of tumour cell growth, NCI panel, 48 h

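Exposure lasted 48 hours, with cells grown in 96-well plates and compounds tested at five concentrations. GI50 is the concentration that inhibits growth by half. The concentration for full growth arrest is given as TGI.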

Regarding `COC(OC)c1cc2c(cc1C(=O)[C@@]13CCC[C@@H]1NC(=O)O3)OCO2`, the TGI in the experiment with SNB-78 CNS was above 100 µM.
For `Cc1c(C(=O)CSc2nc3ccccc3[nH]2)c(=O)n(-c2ccccc2)n1C`, the TGI in the experiment with LXFL 529 NSCLC, in the experiment on KM20L2 colon and in the experiment on SNB-78 CNS was above 100 µM each time.
With `COc1cccc(/C=C/C(=O)c2cc3c(N)c(C(=O)Nc4cccc5ccccc45)sc3nc2C)c1`, the figures for the GI50 in the experiment with T-47D breast, with DU-145 prostate and in the experiment with PC-3 prostate were 1.22 µM, 1.14 µM and 1.48 µM, respectively. In addition, the TGI is 4.45 µM in the experiment with T-47D breast, 2.86 µM in the experiment on DU-145 prostate and 6.22 µM with PC-3 prostate.
Consider `CC1CCC2N(C1)CC1C3(O)CC45OC6(O)C(O)CCC4(C)C6CCC5C3(O)CC(O)C1(O)C2(C)O` (stereo not drawn), for which the TGI with T-47D breast, in the experiment on MDA-N, with DU-145 prostate and with PC-3 prostate was above 100 µM each time.
Compound `CCOC(=O)C(NC(=O)c1[nH]cnc1/N=N/N(C)C)C(C)C` (stereo not drawn) displayed a TGI in the experiment with LXFL 529 NSCLC above 100 µM.
Regarding `CC(=O)N(Cc1ccccc1)c1ccccc1I(=O)=O`, in the experiment with T-47D breast, the GI50 was 36.1 µM and the TGI is above 100 µM. In addition, in the experiment with DU-145 prostate, the GI50 was 29.6 µM and the TGI is above 100 µM.
Regarding `CC1=C(C(=O)Nc2ccc(Cl)c(Cl)c2)C(c2ccccc2O)NC(=O)N1` (stereo not drawn), the values for the GI50 in the experiment on T-47D breast, in the experiment on DU-145 prostate and in the experiment on PC-3 prostate were above 50 µM, above 50 µM and 33.7 µM, respectively. For the same compound, the TGI with T-47D breast, with DU-145 prostate and in the experiment on PC-3 prostate was above 50 µM throughout.
For the compound `CCOC(=O)C1COc2cc(-c3cc(=O)c4ccccc4o3)ccc2O1` (stereo not drawn), the TGI in the experiment on LXFL 529 NSCLC, in the experiment with KM20L2 colon and in the experiment with SNB-78 CNS was above 100 µM each time.
Consider `OCNCCNc1nc2ccccc2c2[nH]c3ccccc3c12`, for which the figures for the GI50 with DU-145 prostate and in the experiment on PC-3 prostate were 0.735 µM and 0.879 µM, respectively. In addition, the TGI in the experiment on DU-145 prostate is 2.42 µM; in the experiment on PC-3 prostate it was 2.11 µM.
`CO[C@@]12[C@@H]3NC3CN1C1=C(C(=O)C(N)=C(C)C1=O)[C@@H]2COC(N)=O` (stereo partly drawn): the GI50 in the experiment with T-47D breast was 1.67 µM; with PC-3 prostate it was 2.02 µM. For the same compound, the TGI with T-47D breast is 54.5 µM; with DU-145 prostate, 11.9 µM; in the experiment with PC-3 prostate it was 37.1 µM.
In the case of `COc1cccc(C2NC(=S)NC(C)=C2C(=O)Nc2ccc(Cl)c(Cl)c2)c1` (stereo not drawn), the GI50 in the experiment with T-47D breast was 14.4 µM; in the experiment on DU-145 prostate, 0.00711 µM; in the experiment on PC-3 prostate it was 14.3 µM. The figures for the TGI in the experiment with T-47D breast, with DU-145 prostate and with PC-3 prostate were above 50 µM, 12 µM and above 50 µM, respectively.
On to `CC1=NN(C(=O)c2ccccc2O)C(=O)/C1=C/c1cccc([N+](=O)[O-])c1`, for which the TGI was above 100 µM in the experiment on LXFL 529 NSCLC; above 100 µM with T-47D breast; 63.6 µM with KM20L2 colon; above 100 µM with MDA-N; above 100 µM with SNB-78 CNS; above 100 µM with DU-145 prostate. Also, in the experiment with PC-3 prostate, the TGI was above 100 µM.
Turning to `CC(=O)OC1CC2C(=O)C(=O)C1(C)C2(C)C` (stereo not drawn), the TGI with T-47D breast, in the experiment with MDA-N, with DU-145 prostate and in the experiment with PC-3 prostate was above 100 µM in each case.
In the case of `CC1(C)CC[C@]2(C(N)=O)CC[C@]3(C)C(=CC[C@@H]4[C@@]5(C)C/C(=C/c6ccncc6)C(=O)C(C)(C)[C@@H]5CC[C@]43C)[C@@H]2C1`, the GI50 was 2.55 µM with T-47D breast, 2.91 µM in the experiment with DU-145 prostate and 1.37 µM in the experiment with PC-3 prostate. The figures for the TGI in the experiment with T-47D breast, in the experiment on DU-145 prostate and with PC-3 prostate were 12.4 µM, 7.85 µM and 3.51 µM, respectively.
Regarding `COc1cc(NC(=O)Nc2cnc(Nc3ccc(N4CCOCC4)cc3)nc2Oc2cccc(OC)c2)cc(OC)c1`, the GI50 was 2.14 µM in the experiment with T-47D breast, 1.73 µM in the experiment with DU-145 prostate and 3.16 µM in the experiment on PC-3 prostate. Also, the TGI in the experiment with T-47D breast is above 50 µM; in the experiment on DU-145 prostate, 5.82 µM; in the experiment with PC-3 prostate it was 23.7 µM.
As for `CC1COCC(C)N1C1=C(Cl)C(=O)c2ccccc2C1=O` (stereo not drawn), the GI50 with DU-145 prostate is 10.7 µM; in the experiment on PC-3 prostate it was 3.92 µM. Further, the TGI in the experiment with DU-145 prostate is 22.9 µM; in the experiment with PC-3 prostate, 17.8 µM.
As for `O=c1[nH]c2ccccc2n1-c1n[nH]c2ccccc12`, the GI50 with T-47D breast is 29.5 µM; with DU-145 prostate, 34 µM; with PC-3 prostate it was 18.1 µM. The TGI with T-47D breast was 98.2 µM; in the experiment with DU-145 prostate it was above 100 µM; with PC-3 prostate, above 100 µM.
In the case of `O=C(NCCCCCCCNC(=O)OCc1ccc2c(Cl)cc(Cl)c(O)c2n1)OCc1ccc2c(Cl)cc(Cl)c(O)c2n1`, the GI50 in the experiment with T-47D breast was 1.33 µM; in the experiment with DU-145 prostate, 0.672 µM; in the experiment with PC-3 prostate, 0.625 µM. Also, the values for the TGI in the experiment on T-47D breast, in the experiment with DU-145 prostate and in the experiment on PC-3 prostate were 3.95 µM, 1.99 µM and 2.16 µM, respectively.
Consider `Nc1ccc2c(c1)c(N)nn2C(=O)Nc1ccc(Cc2ccccc2)cc1`, for which the GI50 with T-47D breast was 5.8 µM; with DU-145 prostate, 10.9 µM; in the experiment with PC-3 prostate it was 4.33 µM. The values for the TGI in the experiment on T-47D breast, in the experiment with DU-145 prostate and with PC-3 prostate were 22.8 µM, 24 µM and 24 µM, respectively.
Regarding `CCOc1cc(-c2ccc[nH]2)[nH]c1/C=C1\N=C(C)C(C(=O)OC)=C1C`, the values for the GI50 with T-47D breast, with DU-145 prostate and in the experiment with PC-3 prostate were 0.0311 µM, 0.0549 µM and 0.0357 µM, respectively. The TGI in the experiment with T-47D breast was 0.367 µM; in the experiment on DU-145 prostate, 1.56 µM; in the experiment on PC-3 prostate it was 2.13 µM.
In the case of `Cc1nc(N)nc2ccccc12`, the TGI in the experiment with T-47D breast, in the experiment with MDA-N, with DU-145 prostate and with PC-3 prostate was above 100 µM throughout.
`N#CC1C=Cc2ccccc2N1C(=O)Oc1ccccc1` (stereo not drawn): the TGI in the experiment on T-47D breast was above 100 µM; in the experiment on MDA-N, above 100 µM; in the experiment with DU-145 prostate, 93.8 µM; in the experiment on PC-3 prostate, above 100 µM.
For the compound `COC(=O)/C(=N/NC(N)=O)C(C(=O)OC)C(=O)C(=O)Nc1ccc(Cl)cc1` (stereo not drawn), the TGI with LXFL 529 NSCLC, with KM20L2 colon and with HOP-18 NSCLC was above 100 µM in each case.
Turning to `CC1OC(OC2CCC3(C=O)C4CCC5(C)C(C6=CC(=O)OC6)CCC5(O)C4CCC3(O)C2)C(O)C(O)C1O` (stereo not drawn), the results for the TGI in the experiment on MDA-N, in the experiment with DU-145 prostate and with PC-3 prostate were 7.94e-05 µM, 1.75e-05 µM and 0.0025 µM, respectively.
